{"source": "patent US8822217B2", "about": "“Method for cultivating tendon cells from pluripotent cells of mesenchymal origin” (Angewandte Biotechnologie GmbH, priority 2007, dated 2014)", "key": {"[1]": {"test_system": "pluripotent cells of mesenchymal origin", "test": "Western Blot analysis for the collagen production", "format": "cell-based, human", "conditions": "for secretion of type I collagen (double band at 130 kD): vs untreated sample a; for cross-linking of the collagen (area of 400 kD): compared to sample b", "protocol": "(§1) In order to isolate pluripotent cells of mesenchymal origin, small pieces of Substantia spongiosa, biopsied from the human wing of ilium were digested at 37° C. in 2 ml of DMEM (Dulbecco's modified eagles medium with 4.5 g/l of glucose) with 2.5 mg/ml collagenase for 3 h. The cell pellet obtained from the digested pieces by multiple centrifugation was inoculated in a density of 200000 cells/cm^2 and was incubated for 24 h in DMEM with 10% foetal calf serum (FCS) and specifically at 37° C., 5% C02 and 100% humidity. One preparation gives a growth area of 60 to 180 cm^2. The culture medium was changed twice a week. Before the cells are confluent after six days, they are passaged in the usual way. The first passage is cultivated further under the standard conditions described until the logarithmic growth phase is reached after three days. The culture medium is then exchanged for a medium which was adjusted to an osmolarity of 360 mosmol/l with the aid of saccharose and, in addition to DMEM mixed with 10% FCS, contains 50 μg/ml of ascorbic acid-2-phosphate. The cells are incubated for four days in this culture medium. […] In addition, the secretion of type I collagen and its cross-linking increases. Following stimulation of the cells to enhanced collagen secretion under hyperosmolar conditions, they are cultivated in a standard culture medium for a further 12 h in order to then be investigated."}, "[2]": {"test_system": "pluripotent cells of mesenchymal origin", "test": "Cell morphology of the cell culture after treatment", "format": "cell-based, human", "protocol": "as §1, with “Following stimulation of the cells to enhanced collagen secretion under hyperosmolar conditions, they are cultivated in a standard culture medium for a further 12 h in order to then be investigated.” left out"}, "[3]": {"conditions": "sample c: treatment under hyperosmolar conditions"}, "[4]": {"conditions": "sample c: treatment under hyperosmolar conditions, listed as ascorbic-2-phosphate"}}, "data": [{"smiles": "O=C1O[C@H]([C@@H](O)CO)C(O)=C1OP(=O)(O)O", "note": "[ascorbic acid-2-phosphate]", "values": [{"measurement": "secretion of type I collagen (double band at 130 kD)", "setting": "[1]; sample b: treatment without hyperosmolar conditions", "value": "significant increase"}, {"measurement": "resistance to digestion with pepsin", "setting": "[1]; [3]", "value": "more resistant to digestion with pepsin"}, {"measurement": "cross-linking of the collagen (area of 400 kD)", "setting": "[1]; [3]", "value": "increases"}, {"measurement": "cross-linking of the collagen (area of 400 kD)", "setting": "[1]; [4]", "value": "enhanced cross-linking"}, {"measurement": "secretion of type I collagen (double band at 130 kD)", "setting": "[1]; [3]", "value": "increases"}, {"measurement": "secretion of type I collagen (double band at 130 kD)", "setting": "[1]; [4]", "value": "significant increase"}, {"measurement": "change in the cellular phenotype", "setting": "[2]; 50 μg/ml, hyperosmolar conditions (360 mosmol/l with saccharose), four days", "value": "the cells become fibroblastic"}, {"measurement": "cell structure (FIG. 1 vs FIG. 2)", "setting": "[2]; treatment with ascorbic-2-phosphate, polygonal structure before treatment", "value": "fibroblastic structures"}]}]}
